Test results: patent publication US20110118283A1, “Substituted Pyrrolidine-2-Carboxamides” (priority 2009, published 2011)

molecular target: MDM2 (Homo sapiens, UniProt Q00987); test: HTRF assay of inhibition of the p53-MDM2 interaction; assay type: binding; details: GST-MDM2 / biotinylated p53 peptide, bsa 0.02%
Protocol: The ability of the compounds to inhibit the interaction between p53 and MDM2 proteins was measured by an HTRF (homogeneous time-resolved fluorescence) assay in which recombinant GST-tagged MDM2 binds to a peptide that resembles the MDM2-interacting region of p53 (Lane et al.). Binding of GST-MDM2 protein and p53-peptide (biotinylated on its N-terminal end) is registered by the FRET (fluorescence resonance energy transfer) between Europium (Eu)-labeled anti-GST antibody and streptavidin-conjugated Allophycocyanin (APC).
[…] Add 10 uL diluted compounds (1:5 dilution in reaction buffer) to each well, mix by shaking. Add 20 uL biotinylated p53 peptide (180 nM working solution) in reaction buffer to each well and mix on shaker. Incubate at 37° C. for 1 h. Add 20 uL streptavidin-APC and Eu-anti-GST antibody mixture (6 nM Eu-anti-GST and 60 nM streptavidin-APC working solution) in TBS buffer with 0.2% BSA, shake at room temperature for 30 minutes and read using a TRF-capable plate reader at 665 and 615 nm (Victor 5, Perkin ElmerWallac). If not specified, the reagents were purchased from Sigma Chemical Co.

MDM2, sequence (Q00987 whole entry, species assumed): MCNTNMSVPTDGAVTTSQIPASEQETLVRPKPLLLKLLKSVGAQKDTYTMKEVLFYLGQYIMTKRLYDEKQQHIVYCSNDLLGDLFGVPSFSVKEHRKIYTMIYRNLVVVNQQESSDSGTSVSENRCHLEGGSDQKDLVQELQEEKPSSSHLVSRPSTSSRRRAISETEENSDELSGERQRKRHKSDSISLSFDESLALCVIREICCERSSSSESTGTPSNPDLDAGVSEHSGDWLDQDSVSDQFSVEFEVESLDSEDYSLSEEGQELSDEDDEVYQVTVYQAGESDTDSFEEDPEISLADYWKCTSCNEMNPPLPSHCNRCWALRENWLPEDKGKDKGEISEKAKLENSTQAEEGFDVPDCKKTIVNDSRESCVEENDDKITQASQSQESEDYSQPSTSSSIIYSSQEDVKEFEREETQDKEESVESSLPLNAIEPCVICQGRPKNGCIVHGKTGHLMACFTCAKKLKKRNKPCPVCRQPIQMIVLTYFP

| Compound | IC50 [nM] |
| --- | --- |
| COC(=O)c1ccc(NC(=O)[C@@H]2N[C@@H](CC(C)(C)C)[C@](C#N)(c3ccc(Br)cn3)[C@H]2c2cccc(Cl)c2F)cc1 (racemic) [Example 34, rac-4-{[(2R,3S,4S,5S)-4-(5-bromo-pyridin-2-yl)-3-(3-chloro-2-fluoro-phenyl)-4-cyano-5-(2,2-dimethyl-propyl)-pyrrolidine-2-carbonyl]-amino}-benzoic acid methyl ester] | 201 |
| CC(C)(C)C[C@@H]1N[C@@H](C(=O)NCC[C@H](O)CO)[C@H](c2cccc(Cl)c2)[C@@]1(C#N)c1cccnc1 (mixture of isomers) [Example 39, rac-(2R,3R,4R,5S)-3-(3-chloro-phenyl)-4-cyano-5-(2,2-dimethyl-propyl)-4-pyridin-3-yl-pyrrolidine-2-carboxylic acid ((S)-3,4-dihydroxy-butyl)-amide] | 1970 |
| CC(C)(C)C[C@@H]1N[C@@H](C(=O)NCC[C@H](O)CO)[C@H](c2cccc(Cl)c2)[C@@]1(C#N)c1ccc(Cl)nc1 (mixture of isomers) [Example 44, rac-(2R,3R,4R,5S)-3-(3-chloro-phenyl)-4-(6-chloro-pyridin-3-yl)-4-cyano-5-(2,2-dimethyl-propyl)-pyrrolidine-2-carboxylic acid ((S)-3,4-dihydroxy-butyl)-amide] | 61 |
| CC(C)(C)C[C@@H]1N[C@@H](C(=O)NCC[C@H](O)CO)[C@H](c2cccc(Cl)c2)[C@@]1(C#N)c1cc(Br)cs1 (mixture of isomers) [Example 7, rac-(2R,3R,4R,5S)-4-(4-bromo-thiophen-2-yl)-3-(3-chloro-phenyl)-4-cyano-5-(2,2-dimethyl-propyl)-pyrrolidine-2-carboxylic acid ((S)-3,4-dihydroxy-butyl)-amide] | 5860 |
| CC(C)(C)C[C@@H]1N[C@@H](C(=O)NCC[C@H](O)CO)[C@H](c2cccc(Cl)c2F)[C@@]1(C#N)c1ncc(Cl)cc1F (mixture of isomers) [Example 25, rac-(2R,3S,4S,5S)-3-(3-chloro-2-fluoro-phenyl)-4-(5-chloro-3-fluoro-pyridin-2-yl)-4-cyano-5-(2,2-dimethyl-propyl)-pyrrolidine-2-carboxylic acid ((S)-3,4-dihydroxy-butyl)-amide] | 1230 |
